The assay relates to HCT-116. The assay can be described thus: Cytotoxicity against human HCT116 cells assessed as growth inhibition after 72 hrs by MTS assay. The class given is functional, cell-based. The note with it: HCT-116, 72 h.

Each structure is given as a SMILES string. *1 amine or outer side, *2 acyl side, *3 side chain or, on linkers, in order; H or OH if unused. Where a SMILES comes first, the peptide text is derived from it. Bridges are numbered along the chain shown (N, C = ends). [ ]: non-standard residue; d: D form. The star is where a group is joined. X1 = CC[C@H](C)[C@@H](N[*:1])[C@@H](O)CC(=O)O[C@H](C(=O)[C@H](C)C(=O)[*:2])C(C)C; NMeY = CN[C@@H](Cc1ccc(O)cc1)C(=O)O; NMeL = CN[C@@H](CC(C)C)C(=O)O; dNMeL = CN[C@H](CC(C)C)C(=O)O; Pyruvoyl = CC(=O)C(=O)*

Consider `CC[C@H](C)[C@H]1NC(=O)[C@@H](NC(=O)[C@@H](CC(C)C)NC)[C@@H](C)OC(=O)[C@H](Cc2ccc(OC)cc2)N(C)C(=O)[C@@H]2CCCN2C(=O)[C@H](CC(C)C)NC(=O)[C@@H](C)C(=O)[C@H](C(C)C)OC(=O)C[C@@H]1O` [DIDEMNIN A] (H-[dNMeL]T[X1]LP[NMeY](Me); ester 2-C), for which the IC50 was found to be 32 nM. With `CC[C@H](C)[C@H]1NC(=O)[C@@H](NC(=O)[C@H](CC(C)C)N(C)C(=O)[C@@H]2CCCN2C(=O)C(C)=O)[C@@H](C)OC(=O)[C@H](Cc2ccc(OC)cc2)N(C)C(=O)[C@@H]2CCCN2C(=O)[C@H](CC(C)C)NC(=O)[C@@H](C)C(=O)[C@H](C(C)C)OC(=O)C[C@@H]1O` (Pyruvoyl-P[NMeL]T[X1]LP[NMeY](Me); ester 3-C) the figure was 24 nM.

As usually defined, the IC50 is the midpoint of a concentration-inhibition curve.

The values above are taken from ChEMBL document CHEMBL1772960, “N,N'-methyleno-didemnin A from the ascidian Trididemnum solidum. Complete NMR assignments and confirmation of the imidazolidinone ring by strategic analysis of 1J(CH)” (J Nat Prod, 2011).
